According to the supplement of paper PMC10307832:

Assays:
Experiment in all cases: relative viability (nuclei count vs DMSO), 5 days (fraction); higher = more cells survive
[1] = compound: C(C(=O)C(=O)O)Br [Bromopyruvate] + Nc1ncn([C@H]2C[C@H](O)[C@@H](CO)O2)c(=O)n1 [Decitabine] (partner 2 µM)
Procedure, shortened: (§1)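 Lung cancer cell lines, seeded in 1536-well plates, were treated the following day by pin tool with a single drug or with five library-drug doses (not always all listed) in √10 steps on top of a fixed anchor-drug dose. Cells were fixed and nuclei stained in one step after 5 days, and nuclei were counted. Relative viability is the nuclei count for treated wells divided by that for vehicle wells, reported as medians of duplicate plates.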

[2] = compound: C(C(=O)C(=O)O)Br [Bromopyruvate] + O=C(CCCCCCC(=O)Nc1ccccc1)NO [Vorinostat] (partner 1 µM)
Procedure, shortened: as §1

Bicalutamide + Lapatinib = compound: CC(O)(CS(=O)(=O)c1ccc(F)cc1)C(=O)Nc1ccc(C#N)c(C(F)(F)F)c1 [Bicalutamide] + CS(=O)(=O)CCNCc1ccc(-c2ccc3ncnc(Nc4ccc(OCc5cccc(F)c5)c(Cl)c4)c3c2)o1 [Lapatinib] (partner 2 µM)
Procedure, shortened: as §1

Bicalutamide + Alpelisib = compound: CC(O)(CS(=O)(=O)c1ccc(F)cc1)C(=O)Nc1ccc(C#N)c(C(F)(F)F)c1 [Bicalutamide] + Cc1nc(NC(=O)N2CCC[C@H]2C(N)=O)sc1-c1ccnc(C(C)(C)C(F)(F)F)c1 [Alpelisib] (partner 2 µM)
Procedure, shortened: as §1

Cell Line	relative viability ([1]; first compound 1 µM)	relative viability ([1]; first compound 3.162 µM)	relative viability ([1]; first compound 10 µM)	relative viability ([1]; first compound 31.62 µM)	relative viability ([1]; first compound 100 µM)	relative viability ([2]; first compound 1 µM)	relative viability ([2]; first compound 3.162 µM)	relative viability ([2]; first compound 10 µM)	relative viability ([2]; first compound 31.62 µM)	relative viability ([2]; first compound 100 µM)	relative viability (Bicalutamide + Lapatinib; first compound 0.08 µM)	relative viability (Bicalutamide + Lapatinib; first compound 0.253 µM)	relative viability (Bicalutamide + Lapatinib; first compound 0.8 µM)	relative viability (Bicalutamide + Lapatinib; first compound 2.53 µM)	relative viability (Bicalutamide + Alpelisib; first compound 0.08 µM)	relative viability (Bicalutamide + Alpelisib; first compound 0.253 µM)	relative viability (Bicalutamide + Alpelisib; first compound 0.8 µM)	relative viability (Bicalutamide + Alpelisib; first compound 2.53 µM)
201T	0.882	0.835	0.849	0.85	0.928	0.967	1.01	0.984	0.912	0.971	1.07	0.95	1.06	1.02	1.05	0.93	1.01	1
A549	0.225	0.271	0.36	0.308	0.266	–	–	–	–	–	1.12	0.959	1.04	0.778	0.878	0.685	0.889	0.733
A-427	0.581	0.567	0.612	0.631	0.568	0.87	0.899	0.841	0.767	0.835	0.945	1.08	1.19	1.1	1.07	1.09	1.19	0.992
ABC-1	0.888	–	–	–	0.885	1.27	–	–	–	0.612	1.45	1.06	1.26	1.28	1.03	1.21	0.997	0.992
BEN	0.726	0.685	0.773	0.617	0.674	0.588	0.581	0.485	0.608	0.411	0.674	0.589	0.984	0.858	0.89	0.991	1.36	1.01
CAL-12T	–	–	–	–	–	0.696	0.769	0.762	0.705	0.489	0.809	0.661	0.891	0.581	1.39	1.09	1.44	1.1
COR-L23	0.407	0.404	0.469	0.379	0.281	0.381	0.473	0.432	0.387	0.255	0.941	0.921	1.2	0.998	0.846	0.757	0.843	0.727
COR-L 105	0.59	0.674	0.75	0.706	0.525	0.708	0.68	0.645	0.665	0.411	0.333	0.353	0.39	0.311	0.957	0.89	1	0.83
Calu-6	–	–	–	–	–	–	–	–	–	–	1.16	1.01	1.12	1.08	1.04	0.908	1.04	0.868
ChaGo-K-1	0.554	0.525	0.609	0.529	0.486	0.818	0.755	0.879	0.703	0.67	–	–	–	–	–	–	–	–
EBC-1	–	–	–	–	–	–	–	–	–	–	0.209	0.206	0.211	0.214	0.885	0.845	0.828	0.776
EKVX	0.36	0.353	0.319	0.371	0.331	0.668	0.685	0.718	0.729	0.713	0.194	0.247	0.192	0.207	0.846	0.827	1.01	0.829
EMC-BAC-2	0.918	1.04	1	–	0.921	0.719	0.336	0.277	–	0.389	0.85	0.735	0.912	0.833	0.702	0.674	0.791	0.694
EPLC-272H	0.371	0.376	0.426	0.437	0.389	0.36	0.38	0.359	0.44	0.347	0.788	0.771	0.92	0.875	1.05	1.03	0.951	0.809
H3255	0.514	0.705	0.794	0.609	0.622	0.941	0.781	0.771	0.763	0.85	0.112	0.239	0.315	0.198	0.697	0.618	1.14	0.649
HARA	0.624	0.572	–	0.545	0.558	0.692	0.511	0.628	0.528	0.37	0.841	0.514	0.904	0.701	1.01	0.767	0.931	0.876
HCC-15	0.614	0.625	0.615	0.659	0.568	0.792	0.838	0.782	0.818	0.686	0.797	0.813	0.966	0.875	0.935	0.897	0.985	0.86
HCC-44	0.987	0.926	0.895	0.943	0.908	1.12	1.04	1.07	1.1	1.13	1.05	0.987	1.12	1.05	0.848	0.764	0.902	0.794
HCC-78	0.644	0.708	0.723	0.63	0.655	0.493	0.443	0.444	0.404	0.427	0.74	0.977	0.91	0.682	0.288	0.327	0.452	0.253
HCC-366	0.358	0.302	0.43	0.348	0.351	0.375	0.368	0.408	0.307	0.227	1.09	1.05	1.12	1	0.476	0.255	0.465	0.37
